From US4228167A, “Diuretic and vasodilating tricyclic quinazolines” (Sumitomo Chemical Company, Limited, priority 1977, dated 1980)
In brackets after ≈: the same amount, converted by molar mass. Like-named read-outs stand apart in the source and are kept apart here. Each block holds one compound with its values, some of them ahead of it.

Columns and labels:
rat aortic strips = assay: Vasodilating activity: relaxation of isolated rat aortic strips contracted with potassium chloride; details: read-out: Median effective concentration (ED50)
Procedure: Vasodilating activity was examined by use of the method described by N. Tada et al., J. Pharmacol. Exp. Ther., 191, 139 (1974). The rat aortic strips were isolated and contracted using 30 mM of potassium chloride. Dose dependent relaxation in the aortic strips was observed by adding the test compounds. At the end of each experiment, papaverine in a concentration of 3×10^-5 g/ml was added and the relaxation induced was taken as 100%. Median effective concentration (ED50) was obtained from dose response curves.

[1] = Diuretic activity (urinary excretion) in rats; type: in vivo; details: standard dose of 10 mg/kg; for Urinary excretion K^30: potassium, control 0.53; for Urinary excretion Na^+ /K^ +: ratio, control 2.9; for Urinary excretion Na^30: sodium, control 1.5; for Urinary excretion: urine volume, control 9.5
Procedure: Diuretic activity was evaluated according to the method described by W. L. Lipschits et al., J. Pharmacol. Exp. Ther., 79, 97 (1943). The results in rats are shown in Table I, where the data for a standard dose of 10 mg/kg is listed for the purpose of comparison.

[2] = rat aortic strips contracted with 30 mM potassium chloride, relaxation by papaverine 3×10^-5 g/ml taken as 100%

EC50 (rat aortic strips; [2]): 0.27 µg/mL (≈ 0.763 µM)
SMILES: CCCCN1C2=NCCCN2C(c2ccccc2)c2cc(Cl)ccc21 (stereo not shown) [8-Cl, H, H, n-Bu, H, CH2 CH2 CH2, 8-Chloro-11-(n-butyl)-6-phenyl-3,4,6,11-tetrahydro-2H-pyrimido[2,1-b]quinazoline]

EC50 (rat aortic strips; [2]): 1 µg/mL (≈ 3 µM)
SMILES: COc1ccc2c(c1)C(c1ccccc1)N1CCN=C1N2CC1CC1 (stereo not shown) [7-MeO, H, H, [drawing 6], H, CH2 CH2, 10-Cyclopropylmethyl-7-methoxy-5-phenyl-2,3,5,10-tetrahydroimidazo[2,1-b]quinazoline]

EC50 (rat aortic strips; [2]): 0.24 µg/mL (≈ 0.71 µM)
SMILES: Clc1ccc2c(c1)N(CC1CC1)C1=NCCN1C2c1ccccc1 (stereo not shown) [8-Cl, H, H, [drawing 3], H, CH2 CH2, 8-Chloro-10-cyclopropylmethyl-5-phenyl-2,3,5,10-tetrahydroimidazo[2,1-b]quinazoline]
Urinary excretion K^30 [1]: 0.92 mequiv/kg | Urinary excretion Na^+ /K^ + [1]: 4.0 | Urinary excretion Na^30 [1]: 3.7 mequiv/kg | Urinary excretion [1]: 26.8 mL/kg

EC50 (rat aortic strips; [2]): 0.29 µg/mL (≈ 0.824 µM)
SMILES: Clc1ccc2c(c1)N(CC1CC1)C1=NCCCN1C2c1ccccc1 (stereo not shown) [9-Cl, H, H, [drawing 4], H, CH2 CH2 CH2, 9-Chloro-11-cyclopropylmethyl-6-phenyl-3,4,6,11-tetrahydro-2H-pyrimido[2,1-b]quinazoline]
Urinary excretion K^30 [1]: 0.78 mequiv/kg | Urinary excretion Na^+ /K^ + [1]: 6.1 | Urinary excretion Na^30 [1]: 4.7 mequiv/kg | Urinary excretion [1]: 34.3 mL/kg

The remaining lines, values behind:

SMILES: CN1C2=NCCCN2C(c2ccccc2)c2cc(Cl)ccc21 (stereo not shown) [8-Cl, H, H, Me, H, CH2 CH2 CH2, 8-chloro-11-methyl-6-phenyl-3,4,6,11-tetrahydro-2H-pyrimido[2,1-b]quinazoline]
Urinary excretion K^30 [1]: 0.97 mequiv/kg | Urinary excretion Na^+ /K^ + [1]: 5.6 | Urinary excretion Na^30 [1]: 5.6 mequiv/kg | Urinary excretion [1]: 38.3 mL/kg

SMILES: CCCCN1C2=NCCN2C(c2ccccc2)c2cc(Cl)ccc21 (stereo not shown) [7-Cl, H, H, n-Bu, H, CH2 CH2, 7-chloro-10-(n-butyl)-5-phenyl-2,3,5,10-tetrahydroimidazo[2,1-b]quinazoline]
Urinary excretion K^30 [1]: 0.86 mequiv/kg | Urinary excretion Na^+ /K^ + [1]: 5.3 | Urinary excretion Na^30 [1]: 4.5 mequiv/kg | Urinary excretion [1]: 31.1 mL/kg

SMILES: COc1ccc(Cc2nccc3cc(OC)c(OC)cc23)cc1OC [Papaverine, reference compound]
EC50 (rat aortic strips; Rattus norvegicus): 4.6 µg/mL (≈ 13.6 µM)

SMILES: CN1C2=NCCN2C(O)(c2ccc(Cl)cc2)c2ccccc21 (stereo not shown) [H, H, p-Cl, Me, OH, CH2 CH2, 5-(p-chlorophenyl)-5-hydroxy-10-methyl-2,3,5,10-tetrahydroimidazo[2,1-b]quinazoline]
Urinary excretion K^30 [1]: 0.84 mequiv/kg | Urinary excretion Na^+ /K^ + [1]: 5.2 | Urinary excretion Na^30 [1]: 4.4 mequiv/kg | Urinary excretion [1]: 32.6 mL/kg
